Source: ChEMBL document CHEMBL4842362, “From virtual screening hits targeting a cryptic pocket in BACE-1 to a nontoxic brain permeable multitarget anti-Alzheimer lead with disease-modifying and cognition-enhancing effects” (Eur J Med Chem, 2021)
≈ marks a conversion by molar mass, not a printed value. Where “and” joins values, the source holds several entries; their conditions need not be identical. Identical values can stand only once. Calls of active or inactive are those of the source. The rule behind the calls is not given here.

What was measured:
[1] = biological target: T1, Beta-secretase 1 (Homo sapiens, UniProt P56817); assay: Inhibition of human recombinant BACE-1 expressed in Escherichia coli at 10 uM using panvera peptide as a substrate incubated for 1 hr by fluorescence analysis relative to control
[2] = biological target: T2, Acetylcholinesterase (Homo sapiens, UniProt P22303); assay: Potency index, ratio of rhein-huprine hybrid IC50 to test compound IC50 for inhibition of human recombinant AChE using acetylthiocholine iodide as a substrate preincubated for 20 mins followed by substrate addition by spectrophotometric analysis
[3] = biological target: T2, Acetylcholinesterase; assay: Potency index, ratio of donepezil IC50 to test compound IC50 for inhibition of human recombinant AChE using acetylthiocholine iodide as a substrate preincubated for 20 mins followed by substrate addition by spectrophotometric analysis
[4] = biological target: T3, Cholinesterase (Homo sapiens, UniProt P06276); assay: Potency index, ratio of rhein-huprine hybrid IC50 to test compound IC50 for inhibition of human serum BChE using butyrylthiocholine iodide as a substrate preincubated for 20 mins followed by substrate addition by spectrophotometric analysis; type: cell-free
[5] = biological target: T3, Cholinesterase; assay: Potency index, ratio of huprine-Y IC50 to test compound IC50 for inhibition of human serum BChE using butyrylthiocholine iodide as a substrate preincubated for 20 mins followed by substrate addition by spectrophotometric analysis; type: cell-free
[6] = biological target: T3, Cholinesterase; assay: Potency index, ratio of donepezil IC50 to test compound IC50 for inhibition of human serum BChE using butyrylthiocholine iodide as a substrate preincubated for 20 mins followed by substrate addition by spectrophotometric analysis; type: cell-free
[7] = biological target: Amyloid-beta precursor protein (Homo sapiens) (UniProt P05067); assay: Inhibition of amyloid beta (1 to 42) (unknown origin) aggregation in Escherichia coli BL21 (DE3) at 10 uM incubated overnight by thioflavin S based fluorescence analysis relative to control
[8] = biological target: Microtubule-associated protein tau (Homo sapiens) (UniProt P10636); assay: Inhibition of tau aggregation (unknown origin) in Escherichia coli BL21 (DE3) at 10 uM incubated overnight by thioflavin S based fluorescence analysis relative to control
[9] = Antioxidant activity assessed as free radical scavenging activity at 500 uM incubated for 30 mins under dark condition by DPPH assay; type: functional
[10] = Neurotoxicity in mouse HT-22 cells assessed as decrease in cell viability at up to 25 uM by MTT assay; type: cell-based
[11] = Acute toxicity in zebra fish embryos assessed as lethality measured every 24 hrs for 72 hrs; design: species or system Danio rerio; details: zebrafish
[12] = Acute toxicity in zebra fish embryos assessed as lethality at 12.5 to 100 uM measured every 24 hrs for 72 hrs relative to control; design: species or system Danio rerio; details: zebrafish, dose 12.5-100 µM, read-out: Activity
[13] = Permeability of the compound in PBS/EtOH by PAMPA-BBB assay; type: ADME; details: read-out: permeability
[14] = Kinetic solubility of the compound in DMSO/PBS buffer measured after 2 hrs by nephalometric analysis; type: physicochemical; details: for solubility kinetic at 2 h: DMSO/PBS buffer, read-out: Kinetic_solubility
[15] = biological target: T2, Acetylcholinesterase
Description: Inhibition of human recombinant AChE using acetylthiocholine iodide as a substrate preincubated for 20 mins followed by substrate addition by spectrophotometric analysis

[16] = biological target: T3, Cholinesterase
Description: Inhibition of human serum BChE using butyrylthiocholine iodide as a substrate preincubated for 20 mins followed by substrate addition by spectrophotometric analysis

[17] = Antioxidant activity assessed as free radical scavenging activity incubated for 30 mins under dark condition by DPPH assay; type: functional
[18] = Metal chelating activity assessed as compound-Zn2+ complex formation at 3 mM in presence of ZnCl2 by UV-Vis spectra analysis
[19] = Metal chelating activity assessed as compound-Cu2+ complex formation at 3 mM in presence of CuSO4 by UV-Vis spectra analysis
[20] = tested on: HT-22; assay: Neuroprotective activity against glutamate induced neuronal death in mouse HT-22 cells assessed as increase in cell viability at 1 to 25 uM by MTT assay; type: functional, cell-based; details: dose 1-25 µM
[21] = tested on: HT-22; assay: Neuroprotective activity against glutamate induced neuronal death in mouse HT-22 cells assessed as increase in cell viability at 25 uM by MTT assay; type: functional, cell-based
[22] = Metal chelating activity assessed as compound-Fe2+ complex formation at 3 mM in presence of FeCl2 by UV-Vis spectra analysis
[23] = biological target: T1, Beta-secretase 1; assay: Inhibition of human recombinant BACE-1 expressed in Escherichia coli using panvera peptide as a substrate incubated for 1 hr by fluorescence analysis
[24] = Metal chelating activity assessed as compound-Cu2+ complex formation at ratio of 5:1 by pyrocatechol violet assay; details: dose 3.0 mM
[25] = Metal chelating activity assessed as compound-Cu2+ complex formation at ratio of 2:1 by pyrocatechol violet assay; details: dose 3.0 mM
[26] = Metal chelating activity assessed as compound-Cu2+ complex formation at ratio of 1:1 by pyrocatechol violet assay; details: dose 3.0 mM
[27] = Metal chelating activity assessed as compound-Cu2+ complex formation at ratio of 0.5:1 by pyrocatechol violet assay; details: dose 3.0 mM
[28] = Neurotoxicity in mouse HT-22 cells assessed as decrease in cell viability at up to 10 uM by MTT assay; type: cell-based
[29] = tested on: HT-22; assay: Neuroprotective activity against glutamate induced neuronal death in mouse HT-22 cells assessed as increase in cell viability by MTT assay; type: functional, cell-based; details: dose 1-25 µM

Chain of Amyloid-beta precursor protein (Homo sapiens) (P05067 whole entry): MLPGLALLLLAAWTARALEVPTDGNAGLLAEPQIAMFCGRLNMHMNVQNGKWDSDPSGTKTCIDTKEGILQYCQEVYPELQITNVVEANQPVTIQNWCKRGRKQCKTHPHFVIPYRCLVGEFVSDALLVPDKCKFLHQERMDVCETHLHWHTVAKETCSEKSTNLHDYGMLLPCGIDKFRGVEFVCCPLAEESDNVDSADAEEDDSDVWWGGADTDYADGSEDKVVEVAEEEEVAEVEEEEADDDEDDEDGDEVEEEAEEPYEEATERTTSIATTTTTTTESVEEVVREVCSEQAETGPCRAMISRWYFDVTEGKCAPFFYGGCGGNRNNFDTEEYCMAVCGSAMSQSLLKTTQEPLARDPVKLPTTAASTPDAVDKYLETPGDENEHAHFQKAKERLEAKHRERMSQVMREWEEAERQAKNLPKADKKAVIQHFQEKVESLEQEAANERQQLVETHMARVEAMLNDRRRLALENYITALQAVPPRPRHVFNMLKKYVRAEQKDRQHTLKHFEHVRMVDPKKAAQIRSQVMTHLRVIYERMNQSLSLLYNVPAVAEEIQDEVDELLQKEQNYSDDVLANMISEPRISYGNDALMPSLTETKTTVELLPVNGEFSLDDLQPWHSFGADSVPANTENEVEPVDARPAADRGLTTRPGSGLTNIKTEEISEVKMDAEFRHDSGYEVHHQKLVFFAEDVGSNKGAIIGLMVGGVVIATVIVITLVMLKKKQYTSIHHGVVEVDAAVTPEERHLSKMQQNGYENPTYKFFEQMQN
T3 sequence (P06276 whole entry): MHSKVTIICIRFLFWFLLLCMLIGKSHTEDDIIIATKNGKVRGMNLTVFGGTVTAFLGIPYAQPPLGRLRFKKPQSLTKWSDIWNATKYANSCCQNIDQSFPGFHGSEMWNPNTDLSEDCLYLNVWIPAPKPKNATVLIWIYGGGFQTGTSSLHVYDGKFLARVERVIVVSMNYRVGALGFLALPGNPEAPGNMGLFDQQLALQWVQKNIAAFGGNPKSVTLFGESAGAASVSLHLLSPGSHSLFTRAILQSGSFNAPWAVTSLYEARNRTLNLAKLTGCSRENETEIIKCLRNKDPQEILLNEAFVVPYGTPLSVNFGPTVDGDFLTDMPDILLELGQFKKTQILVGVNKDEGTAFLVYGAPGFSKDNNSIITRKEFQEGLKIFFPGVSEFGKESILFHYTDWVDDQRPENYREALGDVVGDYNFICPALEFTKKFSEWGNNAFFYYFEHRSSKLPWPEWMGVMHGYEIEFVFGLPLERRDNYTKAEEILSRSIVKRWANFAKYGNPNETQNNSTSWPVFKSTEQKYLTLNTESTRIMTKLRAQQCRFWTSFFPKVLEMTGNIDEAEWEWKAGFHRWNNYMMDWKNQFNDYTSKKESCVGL
T2 sequence (P22303 whole entry): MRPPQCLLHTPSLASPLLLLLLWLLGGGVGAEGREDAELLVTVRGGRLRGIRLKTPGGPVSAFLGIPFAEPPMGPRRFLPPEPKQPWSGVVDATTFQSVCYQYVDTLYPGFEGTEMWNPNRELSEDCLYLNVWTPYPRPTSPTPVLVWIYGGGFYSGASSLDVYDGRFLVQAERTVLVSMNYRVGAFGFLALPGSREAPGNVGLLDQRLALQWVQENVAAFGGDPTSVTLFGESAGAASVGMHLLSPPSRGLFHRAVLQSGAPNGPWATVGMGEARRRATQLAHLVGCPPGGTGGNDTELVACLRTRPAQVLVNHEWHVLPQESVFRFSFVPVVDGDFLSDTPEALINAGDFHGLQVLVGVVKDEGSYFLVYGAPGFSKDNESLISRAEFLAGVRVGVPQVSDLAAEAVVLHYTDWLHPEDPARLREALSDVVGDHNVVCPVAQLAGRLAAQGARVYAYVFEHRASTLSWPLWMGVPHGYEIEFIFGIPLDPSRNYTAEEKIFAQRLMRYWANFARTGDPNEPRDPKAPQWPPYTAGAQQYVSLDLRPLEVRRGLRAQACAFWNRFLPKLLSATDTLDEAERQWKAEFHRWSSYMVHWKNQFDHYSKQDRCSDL
Chain of Microtubule-associated protein tau (Homo sapiens) (P10636 whole entry): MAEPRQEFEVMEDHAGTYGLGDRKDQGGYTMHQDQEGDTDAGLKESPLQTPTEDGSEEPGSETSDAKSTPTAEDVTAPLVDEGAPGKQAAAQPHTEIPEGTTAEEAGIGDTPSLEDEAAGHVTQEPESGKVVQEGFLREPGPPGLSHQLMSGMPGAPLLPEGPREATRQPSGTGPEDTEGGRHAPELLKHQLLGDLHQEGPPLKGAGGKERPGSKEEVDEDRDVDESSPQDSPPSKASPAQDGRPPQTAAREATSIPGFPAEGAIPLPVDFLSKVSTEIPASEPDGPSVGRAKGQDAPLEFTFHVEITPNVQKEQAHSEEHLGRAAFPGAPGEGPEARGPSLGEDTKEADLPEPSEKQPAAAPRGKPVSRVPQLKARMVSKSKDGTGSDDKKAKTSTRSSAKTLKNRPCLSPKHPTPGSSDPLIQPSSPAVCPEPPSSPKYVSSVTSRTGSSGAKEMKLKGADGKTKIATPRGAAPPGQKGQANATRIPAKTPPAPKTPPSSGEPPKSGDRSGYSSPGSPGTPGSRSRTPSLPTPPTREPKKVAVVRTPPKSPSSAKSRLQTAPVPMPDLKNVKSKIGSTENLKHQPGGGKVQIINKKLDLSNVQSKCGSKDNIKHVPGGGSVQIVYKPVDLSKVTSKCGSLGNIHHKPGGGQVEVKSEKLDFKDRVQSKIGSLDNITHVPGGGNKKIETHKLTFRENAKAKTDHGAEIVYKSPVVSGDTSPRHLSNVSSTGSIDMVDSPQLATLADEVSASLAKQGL
T1 sequence (P56817 whole entry): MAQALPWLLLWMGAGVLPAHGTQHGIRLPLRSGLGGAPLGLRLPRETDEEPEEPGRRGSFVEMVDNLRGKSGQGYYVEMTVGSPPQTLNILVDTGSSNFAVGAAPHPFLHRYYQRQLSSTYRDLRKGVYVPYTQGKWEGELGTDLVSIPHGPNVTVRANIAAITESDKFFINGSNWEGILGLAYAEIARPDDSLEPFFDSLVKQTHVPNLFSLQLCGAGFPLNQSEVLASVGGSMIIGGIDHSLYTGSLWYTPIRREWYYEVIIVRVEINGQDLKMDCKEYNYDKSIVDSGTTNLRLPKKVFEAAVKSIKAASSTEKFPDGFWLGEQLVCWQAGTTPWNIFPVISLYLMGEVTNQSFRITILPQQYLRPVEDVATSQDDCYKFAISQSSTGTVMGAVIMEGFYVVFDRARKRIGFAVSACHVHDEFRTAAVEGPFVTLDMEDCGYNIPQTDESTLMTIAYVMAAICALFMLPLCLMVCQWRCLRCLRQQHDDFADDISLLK

| Structure (SMILES) | inhibition [1] | Ratio IC50 [2] | Ratio IC50 [3] | Ratio IC50 [4] | Ratio IC50 [5] | Ratio IC50 [6] | inhibition [7] | inhibition [8] | Activity [9] | Activity [10] | LC50 at 72 h [11] | Papp [13] | solubility kinetic at 2 h [14] | IC50 [15] | IC50 [16] | further results |
| --- | --- | --- | --- | --- | --- | --- | --- | --- | --- | --- | --- | --- | --- | --- | --- | --- |
| COc1cc(CNC(=O)CCCCCCCCNc2c3c(nc4cc(Cl)ccc24)CC2C=C(C)CC3C2)ccn1 (configuration not stated) | 26.5% | < 9 | < 65 | 7 | 2 | 79 | 29.4% | 41.6% | inactive | Non-Toxic | 7100 nM | 8.2 ×10⁻⁶ cm/s | 5.1 µg/mL (≈ 9.09 µM) | 1.25 nM | 88.5 nM | mortality at 24 h, 100 µM [12]: 75% |
| CC1=CC2Cc3nc4cc(Cl)ccc4c(NCCCCCCCCC(=O)NCc4cc[nH]c(=O)c4)c3C(C1)C2 (configuration not stated) | inactive | < 9 | < 65 | 7 | 2 | 79 | 19.9% | 20.9% | – | Non-Toxic | > 100000 nM | 4.4 ×10⁻⁶ cm/s | 13.8 µg/mL (≈ 25.2 µM) | 0.63 nM | 75.8 nM | EC50 [17]: 90600 nM |
| CC1=CC2Cc3nc4cc(Cl)ccc4c(NCCCCCCCCCNC(=O)c4ccc[nH]c4=O)c3C(C1)C2 (configuration not stated) | 6.92% | < 9 | < 65 | 7 | 2 | 79 | 42.3% | 48.5% | inactive | Non-Toxic | 57800 nM | 6.7 ×10⁻⁶ cm/s | 7.7 µg/mL (≈ 14.1 µM) | 1.82 nM | 31.9 nM | Activity [18]: Active; Activity [19]: Active; Activity [20]: inactive |
| O=c1c(O)c(-c2ccc(O)c(O)c2)oc2cc(O)cc(O)c12 | – | – | – | – | – | – | – | – | – | – | – | – | – | – | – | Activity [21]: Active |
| CC1=CC2Cc3nc4cc(Cl)ccc4c(NCCCCCCCCCNS(=O)(=O)c4cn[nH]c4)c3C(C1)C2 (configuration not stated) | – | < 9 | < 65 | 7 | 2 | 79 | 35.3% | 55.5% | inactive | – | > 100000 nM | 6.3 ×10⁻⁶ cm/s | 5.7 µg/mL (≈ 10.2 µM) | 2.4 nM | 50.3 nM | Activity [18]: Active; Activity [22]: Active; IC50 [23]: 10800 nM; Activity [19]: Active; Activity [24]: Active; Activity [25]: Active; Activity [26]: Active; Activity [27]: Active; Activity [20]: inactive; Activity [28]: Toxic |
| CC[N+](C)(CC)CCC[n+]1c(-c2ccccc2)c2cc(N)ccc2c2ccc(N)cc21 | – | – | – | – | – | – | 39.2% | – | – | – | – | – | – | – | – | – |
| CC1=CC2Cc3nc4cc(Cl)ccc4c(N)c3C(C1)C2 (racemic) [HUPRINE Y] | – | – | – | – | – | – | – | – | – | – | 20900 nM | – | – | – | – | – |
| CC1=CC2Cc3nc4cc(Cl)ccc4c(NCCCCCCCCC(=O)N4CCNC(=O)C4)c3C(C1)C2 (configuration not stated) | inactive | < 9 | < 65 | 7 | 2 | 79 | 9.7% | 15% | inactive | Non-Toxic | > 100000 nM | 4.9 ×10⁻⁶ cm/s | 43.3 µg/mL (≈ 82.8 µM) | 0.41 nM | 74.8 nM | – |
| CC1=CC2Cc3nc4cc(Cl)ccc4c(NCCCCCCCCCNC(=O)c4cc(O)c5c(c4)C(=O)c4cccc(O)c4C5=O)c3C(C1)C2 (configuration not stated) | – | – | – | – | – | – | 47.9% | 29.6% | – | – | – | – | – | – | – | Kinetic_solubility ([14]; 2 h): 19.7 uM and 14.8 ug ml-1 |
| O=C1O[C@H]([C@@H](O)CO)C(O)=C1O [ASCORBIC ACID] | – | – | – | – | – | – | – | – | – | – | – | – | – | – | – | EC50 [17]: 11800 nM |
| CC1=CC2Cc3nc4cc(Cl)ccc4c(NCCCCCCCCC(=O)Nc4cn[nH]c4)c3C(C1)C2 (configuration not stated) | 16.2% | < 9 | < 65 | 7 | 2 | 79 | 32.6% | 45.3% | – | Non-Toxic | 69100 nM | 5.9 ×10⁻⁶ cm/s | 9.3 µg/mL (≈ 18.4 µM) | 2.39 nM | 64 nM | Activity [18]: Active; Activity [22]: Active; Activity [19]: Active; Activity [24]: Active; Activity [25]: Active; Activity [26]: Active; Activity [27]: Active; EC50 [17]: 19600 nM; Activity [29]: Dose-Dependent Effect |
| O=C(O)CN(CCN(CC(=O)O)CC(=O)O)CC(=O)O | – | – | – | – | – | – | – | – | – | – | – | – | – | – | – | Activity [22]: Active; Activity [24]: Active; Activity [25]: Active; Activity [26]: Active; Activity [27]: Active |
